{"source": "patent US20240277873A1", "about": "“ULTRABRIGHT […] PROBES FOR DETECTION AND IMAGING” (Nanyang Technological University, priority 2021, published 2024)", "key": {"NE": {"target": "T1, NE (Homo sapiens, UniProt P08246)", "T1 sequence (P08246 30-267)": "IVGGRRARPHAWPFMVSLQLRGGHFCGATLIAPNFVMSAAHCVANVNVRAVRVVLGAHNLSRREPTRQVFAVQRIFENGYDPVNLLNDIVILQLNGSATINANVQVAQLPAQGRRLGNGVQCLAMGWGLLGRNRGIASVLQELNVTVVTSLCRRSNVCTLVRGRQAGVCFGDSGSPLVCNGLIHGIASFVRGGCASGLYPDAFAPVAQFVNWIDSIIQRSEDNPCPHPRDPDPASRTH", "test": "Enzyme kinetics study of NE with BTPDNe (Michaelis-Menten, HPLC)", "type": "biochemical", "details": "NE 0.1 U/mL, BTPDNe 2-80 μM", "method": "To carry out the kinetic assay, various concentrations of BTPDNe (2, 5, 10, 20, 40 and 80 μM) were incubated with NE (0.1 U/mL) at 37° C. for 10 min in 50 mM Tris, 1 M NaCl, 0.05% (w/v) Brij-35, and at pH=7.5. After incubation, quantification analyses were determined by HPLC. The initial reaction velocity was calculated, plotted against the concentration of BTPDNe, and fitted to a Michaelis-Menten curve. Finally, the kinetic parameters were calculated by Michaelis Menten equation: […]\nwhere v is initial velocity, and [S] is substrate concentration."}, "[1]": {"test": "Blood test: chemiluminescence after incubation in healthy mouse blood", "details": "20 μM, 30 min, 100 μL blood", "method": "BTPDNe (20 μM) and MPDNe (20 μM) were incubated for 30 min in healthy mouse blood (100 μL), respectively. Chemiluminescence intensities were measured by IVIS system bioluminescence with an acquisition time of 60 s."}, "3T3 cells": {"tested_on": "3T3 cells", "test": "Cytotoxicity assay (MTS), 3T3 cells", "type": "cell-based, mouse", "details": "2.5 to 50 μM, 24 h", "method": "(§1) Neutrophils and normal mouse embryonic fibroblasts (3T3) cells were seeded in 96-well plates which have 5×10^4 cells per well and incubated for 24 h. Then, BTPDNe at different concentrations (2.5, 5, 10, 20 and 50 μM) was added into the neutrophils and 3T3 cells, respectively. After 24 h incubation, MTS assay was added to the cell for 4 h incubation. After incubation, the absorbance of MTS at 490 nm was recorded by using a microplate reader (SpectraMax M, Switzerland). The assays were performed in five sets for each concentration."}, "neutrophils [2]": {"tested_on": "neutrophils", "test": "In vitro cell chemiluminescent imaging", "type": "cell-based", "method": "3T3 cells and immune cells (neutrophils, DC cells, T-cells and macrophage) (10^4 cells) were seeded into confocal cell culture dishes (dia. 15 mm) and incubated for 24 h. […] After incubation, the medium was removed, and the cells were washed thrice. Chemiluminescence imaging of the cells were recorded on LX71 inverted microscope (Olympus), which was equipped with infinity 3-1 (Lumenera) CCD camera. During imaging, the excitation light was blocked and the images were recorded under an open filter, with an acquisition time of 60 s."}, "IMQ-induced psoriasis": {"tested_on": "IMQ-induced psoriasis", "test": "Real-time chemiluminescence imaging in IMQ-induced psoriasis model", "type": "in vivo, BALB/c mice", "details": "3 min post-topical administration of BTPDNe, microneedle", "method": "(§2) The control group was treated with Vaseline (50 mg/d) and the IMQ-treatment group was applied with IMQ cream (60 mg/d, 5%) once a day. […] Probe BTPDNe (10 uM, 1 mM in DMSO) was thoroughly mixed with Aquaphor (˜10 mg) and applied for psoriasis imaging, followed by poly(methyl methacrylate) microneedle treatment for 1 min. Then, chemiluminescent signals at different time-points (0, 3, 5, 10, 15, 30, 45 and 60 min) after probe-treatment were recorded using IVIS system bioluminescence with acquiring time of 180 s. Until the third day, all the mice were sacrificed to collect tissue and blood for further experiments (hematoxylin and eosin (H&E) staining and flow cytometry analysis) as described in Example 11."}, "dorsal skins of mice": {"tested_on": "dorsal skins of mice", "test": "Histopathologic, immunohistochemical and flow cytometry analyses of dorsal skins (IMQ psoriasis model)", "type": "in vivo, BALB/c mice", "details": "fresh slides of dorsal skins, 2-day IMQ treatment, immunofluorescence", "method": "as §2\nThe dorsal skin samples were separated and soaked in 4% paraformaldehyde (4% PFA) for 12 h and immersed in 30% sucrose solution. The skin samples were stained by hematoxylin and eosin (H&E). Then, the samples were flash-frozen by liquid nitrogen, immobilized with optimal cutting temperature compound, and section slices ([…]). The thickness of epidermis was observed under a microscope (Nikon ECLIPSE 80i microscope). APC-Ly6G, as a neutrophil marker, was used to stain neutrophil cells and DAPI was applied for cell nucleus staining. The immunofluorescence was observed by Nikon ECLIPSE 80i microscope.\nAfter performing in vivo chemiluminescence imaging of neutrophils using BTPDNe in psoriasis-bearing mice with 2 day IMQ treatment, fresh section slices from dorsal skins were stained with Ly6G. Immunofluorescence imaging of slices with activated BTPDNe in green color was observed upon excitation at 405 nm and emission at 500-550 nm, while red color from Ly6G was observed upon excitation from 633-647 nm and emission at 660 nm. The immunofluorescence imaging was acquired by Nikon ECLIPSE 80i microscope."}, "neutrophils [3]": {"tested_on": "neutrophils", "test": "Cytotoxicity assay (MTS), neutrophils", "type": "cell-based", "details": "2.5 to 50 μM, 24 h", "method": "as §1"}, "LPS-treated mice": {"tested_on": "LPS-treated mice", "test": "Real-time chemiluminescence imaging in LPS-induced peritonitis model", "type": "in vivo", "method": "The model was induced by intraperitoneal injection of LPS (15 ng) in 100 μL of PBS or PBS only as a control. Probe BTPDNe (40 μM·Kg^−1) or MPDNe (40 μM·Kg^−1) in PBS (10 mM, pH 7.4) containing 10% DMSO was intraperitoneally injected in mice. Then, chemiluminescent signals at different post-injection timepoints (0, 5, 10, 20, 45 and 60 min) were recorded using IVIS system bioluminescence with acquiring time of 120 s. After 3 h, the peritoneum was flushed with PBS (5 mL)+EDTA (5 mM). After erythrocyte lysis, neutrophils from C57Bl/6 mice were stained with a PE-labeled CD. After treatment with LPS for 3 h, CD11c antibody and an APC-labeled Ly6G antibody were added to the neutrophils, and the neutrophils were analyzed for double-positive events using flow cytometry (BD Biosciences). Data analysis was performed using Flowjo V10. Neutrophils were gated as CD45+CD11b+Ly6G+cells after the exclusion of doublets.\nFluorescence and chemiluminescence in vivo imaging of the probes were measured by an IVIS spectrum imaging system. Chemiluminescence imaging of the cells was recorded on LX71 inverted microscope. Tissue slices were cut by Leica, Germany slicer and imaged by a Nikon ECLIPSE 80i microscope. The images of tissue sections and cells were recorded with a LSM800 confocal laser scanning microscope. The white light was provided by 150 W LED High Bay Thermo Light."}}}
{"smiles": "COC1(c2ccc(-c3nc4ccccc4s3)c(OCc3ccc(NC(=O)[C@@H](NC(=O)[C@@H]4CCCN4C(=O)[C@H](C)NC(=O)[C@H](C)NC(C)=O)C(C)C)cc3)c2)OOC12C1CC3CC(C1)CC2C3", "note": "(stereo partly shown) [BTPDNe]", "values": [{"measurement": "enzyme kinetic coefficient", "setting": "NE", "result": 22000, "unit": "M⁻¹ s⁻¹"}, {"measurement": "Kcat", "setting": "NE; 37° C., 10 min, pH 7.5", "result": 1.15, "unit": "s⁻¹"}, {"measurement": "Km", "setting": "NE; 37° C., 10 min, pH 7.5", "result": 52.2, "unit": "µM"}, {"measurement": "chemiluminescence intensities after incubation with healthy mouse blood", "setting": "[1]", "result": "Negligible"}, {"measurement": "cytotoxicity (cell viability, MTS)", "setting": "3T3 cells", "result": "no cytotoxicity"}, {"measurement": "differentiation of neutrophils from other immune cells", "setting": "neutrophils [2]; neutrophil, DC, macrophage, CTL, 3T3, 20 μM", "result": "differentiated neutrophils from other immune cells"}, {"measurement": "activated chemiluminescence signal in neutrophils, 30 min", "setting": "neutrophils [2]; probe 10 μM, incubation 30 min", "result": 63.0, "unit": "pixels"}, {"measurement": "activated chemiluminescence signal in neutrophils, 1 h", "setting": "neutrophils [2]; probe 10 μM, incubation 1 h", "result": 42.7, "unit": "pixels"}, {"measurement": "chemiluminescent signal from dorsal skins vs control group, day 1", "setting": "IMQ-induced psoriasis; day 1 post IMQ", "result": 3.1, "unit": "fold"}, {"measurement": "chemiluminescent signal from dorsal skins vs control group, day 2", "setting": "IMQ-induced psoriasis; day 2 post IMQ", "result": 3.7, "unit": "fold"}, {"measurement": "chemiluminescent signal from dorsal skins vs control group, day 3", "setting": "IMQ-induced psoriasis; day 3 post IMQ", "result": 2.9, "unit": "fold"}, {"measurement": "colocalization of probe activation with neutrophil marker", "setting": "dorsal skins of mice", "result": "colocalized well with APC-Ly6G"}, {"measurement": "cytotoxicity (cell viability, MTS)", "setting": "neutrophils [3]", "result": "no cytotoxicity"}, {"measurement": "chemiluminescent signal relative to MPDNe-injected mice", "setting": "LPS-treated mice; 20 min post-treatment of probes", "result": "~2.15", "unit": "fold"}, {"measurement": "chemiluminescent signals after 60 min", "setting": "LPS-treated mice; LPS-treated mice, 60 min post injection", "result": "could still be observed"}, {"measurement": "maximum chemiluminescent signal enhancement in peritoneum relative to negative control group", "setting": "LPS-treated mice; LPS-treated mice, 3 h post LPS, i.p. probe 40 μM·kg^−1", "result": "~9.2", "unit": "fold"}]}
